Laboratory results as given in US7465471B2, “Palatability of aquaculture feed” (Novus International, Inc., priority 2003, dated 2008).
“And” between values parts separate entries of the source, which are not always exact repeats. Equal values may be shown once. Read-outs that look alike come from different tables or passages of the source.

Legend:
mold = assay: Mold growth in starter mash by CO2 formation in headspace (Examples 7, 8); conditions: for mold growth (CO2 in headspace), words: 0.2% in starter mash
Protocol: Fungal growth in basal starter mash was studied in compositions supplemented with DLM or Alimet® as the methionine source. Total microbial growth was monitored by measuring carbon dioxide (CO2) formation in sealed vessels at 28° C. over time.
The technique of using a closed system and measuring CO2 formation has been verified as an approximation of the conditions found in grain storage bins. See, e.g., Muir et al., Trans. ASAE, 28(5) 1673-1675 (1985), the contents of which are hereby incorporated by reference in their entirety.
A mash starter mash feed (formulation shown in Table 9, below) was subdivided into three groups: basal (control), 0.2% DLM, or 0.2% Alimet®. The feed studied had no commercial mold inhibitors added, and is representative of a typical broiler feed.
Initial moisture of the feed was 10.8%. After the addition of Alimet® or DLM, the moisture of the samples was adjusted by the addition of 2%, 4%, or 6% sterile distilled water to promote mold growth, achieving three moisture groups: […].
For each study, four replicate samples of each moisture group were mixed, and 600 g of the mixture was placed into 1 L containers, sealed, and placed at 28° C. in a temperature-controlled room. Draeger Detector tubes (CO2-measuring, obtained from Fisher Scientific) were used to measure the developed CO2 at different days following vessel sealing (two measurements were made per week). Draeger Short-Term Detector Tubes are glass tubes filled with inert carrier and an indicating reagent. The reagent produces a colorimetric indication in the presence of a particular gas (CO2). The concentration of gas is read directly from the discoloration on the tube's printed scale.
The specific mold species present were not identified. Statistical analysis was accomplished by using Duncan's multiple range test (SAS). Different letters on individual time points in FIGS. 9-11 indicate statistical differences of P<0.05.
The experiment described above in Example 7 was repeated with blends of 2.0 lb/ton, 1.5 lb/ton, 1.0 lb/ton or 0.5 lb/ton of 65% propionic acid and either […]. The blends were prepared according to the matrix outlined in Table 8, below. The 65% propionic acid was buffered with ammonium hydroxide to a pH of 5.5.

cats = assay: No-choice acceptance of food, cats (Example 24); format: in vivo; conditions: Feline
Excerpt: (§1) Acceptance of food containing […]® or DLM was studied to evaluate dietary consumption under no-choice conditions. […] The urine pH of six of the cats was also monitored. The diets described in Tables 39 and 40 above were used.

dogs = assay: No-choice acceptance of food, dogs (Example 24); format: in vivo; conditions: Canine
Excerpt: as §1

C. jejuni = C. jejuni colony counts in broth (Example 1); format: cell-based; conditions: for Δ log: Table 4, 6 h, initial 5.23
Protocol: C. jejuni grown on Campylobacter blood-free selective agar was used for inoculation. Preston broth was incubated under reduced oxygen atmosphere for 6 hours at 37° C. Colony counts were performed.

L. plantarum = L. plantarum colony counts in broth (Example 1); format: cell-based; conditions: for Δ log: Table 3, 6 h, log sample − log initial (5.04)
Protocol: The fresh overnight culture of L. plantarum in brain heart infusion broth were used to inoculate medium 5. The test tubes were incubated under reduced oxygen atmosphere for 6 hours at 37° C. Colony counts were performed.

E. coli [1] = assay: E. coli colony counts over time in soy broth at pH 4 or 7.3 (Example 5); format: cell-based; conditions: FIG. 5
Protocol: The cultures were incubated, and colony counts performed at increasing times.

Lactobacillus plantarum = assay: L. plantarum colony counts in broth at pH 3.5 (Example 16); format: cell-based; conditions: log 6 hours − log initial (5.61)
Protocol: Fresh overnight culture L. plantarum in Brain Heart Infusion broth is used to inoculate medium 5 at a log 4.1 cfu/mL at pH 3.5. The tubes are incubated under oxygen reduced atmosphere for 6 hours at 37° C. Colony counts are performed according standard procedures.

E. coli [2] = format: cell-based; conditions: for Δ log: Table 2, 4 h, initial 5.24
Protocol: Colony counts were performed according to standard operating procedures.

S. enteritidis = S. enteritidis colony counts in broth (Examples 1-3, 17)

In the case of `CSCCC(N)C(=O)O` (racemic) [DLM, DL-methionine], the “mold growth (CO2 in headspace), words” value (mold; 12.8% moisture, FIG. 11) is reported as “sharp increase in mold growth after only twenty days”, the “mold growth (CO2 in headspace), words” value (mold; 16.8% moisture, FIG. 9) is reported as “showed mold growth within two days” and the “mold growth, overall comparison” value (mold; FIGS. 9, 10, 11, vs untreated and each other) is reported as “more likely to develop mold”. The “Total grams consumed, supplemented food” value (cats; DLM 0.25%) was 1,842 grams, the “Total grams consumed, supplemented food” value (cats; DLM 0.3%) was 1,754 grams and the “Total grams consumed, supplemented food” value (dogs; DLM 0.1%) was 11,244 grams. The “Total grams consumed, supplemented food” value (dogs; DLM 0.15%) was 13,542 grams.
For `O=CO` [formic acid], the Δ log (C. jejuni; 0.108 g/L, pH 4.5) was −1.37, the Δ log (C. jejuni; 0.108 g/L, pH 6.75) was 1.04 and the Δ log (C. jejuni; 0.30 g/L, pH 4.5) was −2.60. For the same molecule, the Δ log (C. jejuni; 0.30 g/L, pH 6.75) was 1.15, the Δ log (C. jejuni; 0.83 g/L, pH 4.5) was less than −3.93 and the Δ log (C. jejuni; 0.83 g/L, pH 6.75) was 1.02. For the same molecule, the “inhibition of C. jejuni” value (C. jejuni; pH 4.5) was “comparable inhibition”, the “antibacterial activity against C. jejuni” value (C. jejuni; pH 6.75) was “No antibacterial activity” and the “log cfu/mL” value (C. jejuni; pH 6.75) was 6.27 log cfu/mL and 6.38 log cfu/mL and 6.25 log cfu/mL. The “inhibition of L. plantarum” value (L. plantarum) was “Neither Alimet® nor formic acid inhibited L. plantarum”, the Δ log (L. plantarum; 0.108 g/L, pH 4.5) was 0.71 and the Δ log (L. plantarum; 0.108 g/L, pH 6.75) was 0.84. The Δ log (L. plantarum; 0.30 g/L, pH 4.5) was 0.70, the Δ log (L. plantarum; 0.30 g/L, pH 6.75) was 1.19 and the Δ log (L. plantarum; 0.83 g/L, pH 4.5) was 0.52. The Δ log (L. plantarum; 0.83 g/L, pH 6.75) was 1.15, the “log cfu/mL” value (L. plantarum; pH 4.5) was 5.75 log cfu/mL and 5.74 log cfu/mL and 5.56 log cfu/mL and the “decrease of colony counts of E. coli vs hydrochloric acid” value (E. coli [1]) was “better than hydrochloric acid”. The Δ log (Lactobacillus plantarum; Table 23, 3 g/kg) was −2.42, the Δ log (Lactobacillus plantarum; Table 23, 5 g/kg) was −5.91 and the Δ log (E. coli [2]; 0.108 g/L, pH 4.5) was −0.05. The Δ log (E. coli [2]; 0.108 g/L, pH 6.75) was 2.24, the Δ log (E. coli [2]; 0.30 g/L, pH 4.5) was −0.28 and the Δ log (E. coli [2]; 0.30 g/L, pH 6.75) was 2.26. For the same molecule, the Δ log (E. coli [2]; 0.83 g/L, pH 4.5) was −0.16, the Δ log (E. coli [2]; 0.83 g/L, pH 6.75) was 2.25 and the “inhibition of E. coli” value (E. coli [2]; pH 4.5) was “little or no inhibition”. The “log cfu/mL” value (E. coli [2]; pH 4.5) was 5.19 log cfu/mL and 4.96 log cfu/mL and 5.08 log cfu/mL, the “log reduction of E. coli growth” value (E. coli [2]; pH 4.5) was “approximately 0.1 log” and the “inhibition of E. coli” value (E. coli [2]; pH 6.75) was “Neither Alimet® nor formic acid inhibited E. coli”. The “log cfu/mL” value (E. coli [2]; pH 6.75) was 7.48 log cfu/mL and 7.50 log cfu/mL and 7.49 log cfu/mL, the “effect on inhibiting the growth of S. enteritidis” value (S. enteritidis; pH 4.5) was “neither had a significant effect” and the “reduction in S. enteritidis growth” value (S. enteritidis; pH 4.5) was “approximately 1.2 log cfu/mL”. For the same molecule, the “reduction of growth of S. enteritidis” value (S. enteritidis; pH 4.5) was “approximately 1.3 log cfu/mL”, the “growth inhibition of S. enteritidis” value (S. enteritidis; pH 6.75) was roughly 1 log cfu/mL and the “inhibition of S. enteritidis” value (S. enteritidis; pH 6.75) was “no inhibition”.
